Experimental data as given in US6689754B1, “Heterocyclic glycyl β-alanine derivatives” (G. D. Searle & Co., priority 1998, dated 2004).
Counter-ions that a name gives are not always drawn.

Legend:
[1] = target: T1, Human vitronectin receptor (αvβ3) (Homo sapiens, UniProt P05106+P06756); assay: Vitronectin adhesion assay: solid phase receptor assay, competition with biotinylated vitronectin; assay type: binding; details: purified human vitronectin receptor; 1 nM biotinylated vitronectin
T1 construct: Human vitronectin receptor (αvβ3) was purified from human placenta; from tissue; host or cells: human placenta
Method: Vitronectin Adhesion Assay
Human vitronectin receptor (αvβ3) was purified from human placenta as previously described [Pytela et al., Methods in Enzymology, 144:475-489 (1987)]. Human vitronectin was purified from fresh frozen plasma as previously described [Yatohgo et al., Cell Structure and Function, 13:281-292 (1988)]. Biotinylated human vitronectin was prepared by coupling NHS-biotin from Pierce Chemical Company (Rockford, Ill.) to purified vitronectin as previously described [Charo et al., J. Biol. Chem., 266(3):1415-1421 (1991)]. Assay buffer, OPD substrate tablets, and RIA grade BSA were obtained from Sigma (St. Louis, Mo.). Anti-biotin antibody was obtained from Calbiochem (La Jolla, Calif.). Linbro microtiter plates were obtained from Flow Labs (McLean, Va.). ADP reagent was obtained from Sigma (St. Louis, Mo.).
This assay was essentially the same as previously reported [Niiya et al., Blood, 70:475-483 (1987)]. The purified human vitronectin receptor (αvβ3) was diluted from stock solutions to 1.0 μg/mL in Tris-buffered saline containing 1.0 mM Ca^++, Mg^++, and Mn^++, pH 7.4 (TBS^+++). The diluted receptor was immediately transferred to Linbro microtiter plates at 100 μL/well (100 ng receptor/well). The plates were sealed and incubated overnight at 4° C. to allow the receptor to bind to the wells. All remaining steps were at room temperature. The assay plates were emptied and 200 μL of 1% RIA grade BSA in TBS^+++ (TBS^+++/BSA) were added to block exposed plastic surfaces. Following a 2 hour incubation, the assay plates were washed with TBS^+++ using a 96 well plate washer. Logarithmic serial dilution of the test compound and controls were made starting at a stock concentration of 2 mM and using 2 nM biotinylated vitronectin in TBS^+++/BSA as the diluent. This premixing of labeled ligand with test (or control) ligand, and subsequent transfer of 50 μL aliquots to the assay plate was carried out with a CETUS Propette robot; the final concentration of the labeled ligand was 1 nM and the highest concentration of test compound was 1.0×10^−4 M. The competition occurred for two hours after which all wells were washed with a plate washer as before. Affinity purified horseradish peroxidase labeled goat anti-biotin antibody was diluted 1:3000 in TBS^+++/BSA and 125 μL were added to each well. After 30 minutes, the plates were washed and incubated with OPD/H2O2 substrate in 100 mM/L Citrate buffer, pH 5.0. The plate was read with a microtiter plate reader at a wavelength of 450 nm and when the maximum-binding control wells reached an absorbance of about 1.0, the final A450 were recorded for analysis. The data were analyzed using a macro written for use with the EXCELJ spreadsheet program. The mean, standard deviation, and % CV were determined for duplicate concentrations. The mean A450 values were normalized to the mean of four maximum-binding controls (no competitor added)(B-MAX). The normalized values were subjected to a four parameter curve fit algorithm [Rodbard et al., Int.

[2] = target: T2, Human fibrinogen receptor IIb/IIIa (Homo sapiens, UniProt P05106+P08514); assay: Purified IIb/IIIa receptor assay: solid phase receptor assay, competition with biotinylated vitronectin; assay type: binding; details: 1 nM biotinylated vitronectin
T2 construct: Human fibrinogen receptor ([…]) was purified from outdated platelets; from tissue; host or cells: outdated human platelets
From the text: Purified IIb/IIIa Receptor Assay
Human fibrinogen receptor ([…]) was purified from outdated platelets. (Pytela, R., Pierschbacher, M. D., Argraves, S., Suzuki, S., and Rouslahti, E. “Arginine-Glycine-Aspartic acid adhesion receptors”, Methods in Enzymology 144(1987):475-489.) Human vitronectin was purified from fresh frozen plasma as described in Yatohgo, T., Izumi, M., Kashiwagi, H., and Hayashi, M., “Novel purification of vitronectin from human plasma by heparin affinity chromatography,” Cell Structure and Function 13(1988):281-292. Biotinylated human vitronectin was prepared by coupling NHS-biotin from Pierce Chemical Company (Rockford, Ill.) to purified vitronectin as previously described. (Charo, I. F., Nannizzi, L., Phillips, D. R., Hsu, M. A., Scarborough, R. M., “Inhibition of fibrinogen binding to GP IIb/IIIa by a GP IIIa peptide”, J. Biol. Chem. 266(3)(1991): 1415-1421.) Assay buffer, OPD substrate tablets, and RIA grade BSA were obtained from Sigma (St. Louis, Mo.). Anti-biotin antibody was obtained from Calbiochem (La Jolla, Calif.). Linbro microtiter plates were obtained from Flow Labs (McLean, Vs.). ADP reagent was obtained from Sigma (St. Louis, Mo.).
This assay is essentially the same reported in Niiya, K., Hodson, E., Bader, R., Byers-Ward, V. Koziol, J. A., Plow, E. F. and Ruggeri, Z. M., “Increased surface expression of the membrane glycoprotein IIb/IIIa complex induced by platelet activation: Relationships to the binding of fibrinogen and platelet aggregation”, Blood 70(1987):475-483. The purified human fibrinogen receptor ([…]) was diluted from stock solutions to 1.0 μg/mL in Tris-buffered saline containing 1.0 mM Ca^++, Mg^++, and Mn^++, pH 7.4 (TBS^+++). The diluted receptor was immediately transferred to Linbro microtiter plates at 100 μL/well (100 ng receptor/well). The plates were sealed and incubated overnight at 4° C. to allow the receptor to bind to the wells. All remaining Steps were at room temperature. The assay plates were emptied and 200 μL of 1% RIA grade BSA in TBS^+++ (TBS^+++/BSA) were added to block exposed plastic surfaces. Following a 2 hour incubation, the assay plates were washed with TBS^+++ using a 96 well plate washer. Logarithmic serial dilution of the test compound and controls were made starting at a stock concentration of 2 mM and using 2 nM biotinylated vitronectin in TBS^+++/BSA as the diluent. This premixing of labeled ligand with test (or control) ligand, and subsequent transfer of 50 μL aliquots to the assay plate was carried out with a CETUS Propette robot; the final concentration of the labeled ligand was 1 nM and the highest concentration of test compound was 1.0×10^−4 M. The competition occurred for two hours after which all wells were washed with a plate washer as before. Affinity purified horseradish peroxidase labeled goat anti-biotin antibody was diluted 1:3000 in TBS^+++/BSA and 125 μL were added to each well. After 30 minutes, the plates were washed and incubated with […] substrate in 100 mM/L citrate buffer, pH 5.0. The plate was read with a microtiter plate reader at a wavelength of 450 nm and when the maximum-binding control wells reached an absorbance of about 1.0, the final A450 were recorded for analysis. The data were analyzed using a macro written for use with the EXCELJ spreadsheet program. The mean, standard deviation, and % CV were determined for duplicate concentrations. The mean A450 values were normalized to the mean of four maximum-binding controls (no competitor added)(B-MAX). The normalized values were subjected to a four parameter curve fit algorithm, [Robard et al., Int. Atomic Energy Agency.

Compound | IC50 [1] | IC50 [2]
N=C(N)Nc1cncc(C(=O)NCC(=O)NC(CC(=O)O)c2cc(Cl)cc(Br)c2O)c1 (stereo not shown) [Example 1] | 1.58 nM | 313 nM
N=C(N)Nc1cncc(C(=O)NCC(=O)NC(CC(=O)O)c2cc(Cl)cc(Cl)c2O)c1 (stereo not shown) [Example 2] | 1.32 nM | 272 nM
O=C(O)CC(NC(=O)CNC(=O)c1cncc(NC2=NCCN2)c1)c1cc(Cl)cc(Cl)c1O (stereo not shown) [Example 3] | 0.41 nM | 298 nM
O=C(O)CC(NC(=O)CNC(=O)c1cncc(NC2=NCCN2)c1)c1cc(Cl)cc(Br)c1O (stereo not shown) [Example 4] | 0.74 nM | 581 nM
O=C(O)CC(NC(=O)CNC(=O)c1cncc(NC2=NCCN2)c1)c1cc(Cl)cc(I)c1O (stereo not shown) [Example 5] | 0.42 nM | 884 nM
O=C(O)CC(NC(=O)CNC(=O)c1cncc(NC2=NCCCN2)c1)c1cc(Cl)cc(Cl)c1O (stereo not shown) [Example 6] | 0.27 nM | 1260 nM
O=C(O)C[C@H](NC(=O)CNC(=O)c1cncc(NC2=NCC(O)CN2)c1)c1cc(Br)cc(Cl)c1O (stereo partly shown) [Example 7] | 0.21 nM | 361 nM
N=C(N)Nc1nc(C(=O)NCC(=O)NC(CC(=O)O)c2cccnc2)cs1 (stereo not shown) [Example 8] | 95.1 nM | 857 nM
O=C(O)C[C@H](NC(=O)CNC(=O)c1cncc(N=C2NCC(O)CN2)c1)c1cc(Cl)cc(Br)c1O (stereo partly shown) [Example 9] | 0.18 nM | 244 nM
O=C(O)C[C@H](NC(=O)CNC(=O)c1cncc(N=C2NCC(O)CN2)c1)c1cc(Cl)cc(Cl)c1O (stereo partly shown) [Example 10] | 0.14 nM | 161 nM
O=C(O)C[C@H](NC(=O)CNC(=O)c1cncc(N=C2NCC(O)CN2)c1)c1cc(Br)cc(Br)c1O (stereo partly shown) [Example 11] | 0.34 nM | 462 nM
O=C(O)C[C@H](NC(=O)CNC(=O)c1cc(NC2=NCC(O)CN2)cs1)c1cc(Cl)cc(Cl)c1O (stereo partly drawn) [Example 12, (3S)-N-[[4-[(1,4,5,6-tetrahydro-5-hydroxy-2-pyrimidinyl)amino]-2-thienyl]carbonyl]glycyl-3-(3,5-dichloro-2-hydroxyphenyl)-β-alanine, trifluoroacetate salt] | 4.5 nM | 442 nM
O=C(O)CC(NC(=O)CNC(=O)c1cc(NC2=NCCN2)cs1)c1cc(Cl)cc(Cl)c1O (stereo not drawn) [Example 13, N-[[4-[(4,5-dihydro-1H-imidazol-2-yl)amino]-2-thienyl]carbonyl]glycyl-3-(3,5-dichloro-2-hydroxyphenyl)-β-alanine, trifluoroacetate salt] | 9.32 nM | 780 nM
Cc1sc(C(=O)NCC(=O)N[C@@H](CC(=O)O)c2cc(Cl)cc(Cl)c2O)cc1NC1=NCC(O)CN1 (stereo partly drawn) [Example 14, (3S)-N-[[5-methyl-4-[(1,4,5,6-tetrahydro-5-hydroxy-2-pyrimidinyl)amino]-2-thienyl]carbonyl]glycyl-3-(3,5-dichloro-2-hydroxyphenyl)-β-alanine, trifluoroacetate salt] | 12.4 nM | 772 nM
Cc1sc(C(=O)NCC(=O)N[C@@H](CC(=O)O)c2cc(Cl)cc(Cl)c2O)cc1NC1=NCCN1 [Example 15, (3S)-N-[[4-(4,5,-dihydro-1H-imidazol-2-yl)amino]-5-methyl-2-thienyl]carbonyl]glycyl-3-(3,5-dichloro-2-hydroxyphenyl)-β-alanine, trifluoroacetate salt] | 25.4 nM | 1040 nM
O=C(O)CC(NC(=O)CNC(=O)c1ccc(NC2=NCCN2)s1)c1cc(Cl)cc(Cl)c1O (stereo not drawn) [Example 16, N-[[5-(4,5,-dihydro-1H-imidazol-2-yl)amino]-2-thienyl]carbonyl]glycyl]-3-(3,5-dichloro-2-hydroxyphenyl)-β-alanine, trifluoroacetate salt] | 22000 nM | 6180 nM
COc1ncc(C(=O)NCC(=O)NC(CC(=O)O)c2cc(Cl)cc(Cl)c2O)cc1NC1=NCCN1 (stereo not drawn) [Example 17, N-[[5-(4,5,-dihydro-1H-imidazol-2-yl)amino]-6-methoxy-3-pyridinyl]carbonyl]glycyl]-3-(3,5-dichloro-2-hydroxyphenyl)-β-alanine, bis(trifluoroacetate) salt] | 0.46 nM | 724 nM
Cn1cc(C(=O)NCC(=O)NC(CC(=O)O)c2cc(Cl)cc(Cl)c2O)cc(NC2=NCCN2)c1=O (stereo not drawn) [Example 18, N-[[5-(4,5,-dihydro-1H-imidazol-2-yl)amino]-1,6-dihydro-1-methyl-6-oxo-3-pyridinyl]carbonyl]glycyl-3-(3,5-dichloro-2-hydroxyphenyl-β-alanine, (trifluoroacetate) salt] | 0.43 nM | 798 nM
O=C(O)CC(NC(=O)CNC(=O)c1cnc(Cl)c(NC2=NCCN2)c1)c1cc(Cl)cc(Cl)c1O (stereo not drawn) [Example 19, N-[[6-chloro-5-[(4,5,-dihydro-1H-imidazol-2-yl)amino]-3-pyridinyl]carbonyl]-glycyl-3-(3,5-dichloro-2-hydroxyphenyl)-β-alanine, (trifluoroacetate) salt, monohydrate] | 2.96 nM | 2490 nM
O=C(O)CC(NC(=O)CNC(=O)c1c[nH]c(=O)c(NC2=NCCN2)c1)c1cc(Cl)cc(Cl)c1O (stereo not drawn) [Example 20, N-[[5-[(4,5,-dihydro-1H-imidazol-2-yl)amino]-1,6-dihydro-6-oxo-3-pyridinyl]-carbonyl]glycyl-3-(3,5-dichloro-2-hydroxyphenyl)-β-alanine, (trifluoroacetate) salt] | 0.32 nM | 2020 nM
